Where two headings read alike, the source gives them in different places.
How the values were obtained:
Human Arginase 1 = biological target: T1, Human Arginase 1 (Homo sapiens, UniProt P05089); experiment: Human Arginase 1 enzyme inhibition (thioarginine/DTNB absorbance at 412 nm); type: biochemical; conditions: recombinant enzyme 5 nM, 60 min, room temperature
T1 construct: made in house; host or cells: E. coli
T1 sequence (P05089 1-322): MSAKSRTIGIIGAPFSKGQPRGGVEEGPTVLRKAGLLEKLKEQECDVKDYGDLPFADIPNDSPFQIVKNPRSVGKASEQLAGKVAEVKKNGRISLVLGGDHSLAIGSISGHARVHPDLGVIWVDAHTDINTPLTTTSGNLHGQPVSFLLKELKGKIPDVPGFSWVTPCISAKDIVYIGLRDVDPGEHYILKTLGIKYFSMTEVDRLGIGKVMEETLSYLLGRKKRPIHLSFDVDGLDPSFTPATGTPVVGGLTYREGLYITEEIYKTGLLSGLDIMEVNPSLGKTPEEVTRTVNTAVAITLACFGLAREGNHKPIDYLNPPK
Description: (§1) The inhibitory effects of Examples 1-26 on the activity of Human Arginase 1 and Arginase 2 activity were quantified by measuring the formation of the thiol group from thioarginine using recombinant Arginase 1 or Arginase 2 produced from E. coli. The thiol group was detected with Ellman's reagent, 5,5′-dithiobis(2-nitrobenzoic acid) (DTNB). DTNB reacts with the thiol to give the mixed disulfide and 2-nitro-5-thiobenzoic acid (TNB) which is quantified by the absorbance of the anion (TNB^2−) at 412 nm.
(§2) The assays were run in clear 384 well plates (Greiner cat no: 781101). Various concentrations of Examples 1-26 in 300 nL DMSO were dispensed to assay plates using an Echo acoustic dispenser immediately followed by plate sealing and centrifugation. Two pre-mixes were prepared from reagents thawed immediately before addition to assay plates. Pre-mix one comprised human Arginase 1 or human Arginase 2, at a final concentration of 5 nM and 0.5 mM DTNB in assay buffer, 45 mM HEPES pH7.5, brij 35, 0.045% (w/v) and 100 μM MnCl2. Pre-mix two comprised freshly thawed 0.5 mM thioarginine in assay buffer. Fifteen microlitres of pre-mix one was dispensed to assay plates containing Examples 1-9, centrifuged and incubated for 30 minutes at room temperature prior to adding fifteen microlitres of pre-mix two.
(§3) Assay plates were centrifuged prior to reading absorbance at 412 nm in a Pherastar multi-mode plate reader to collect data at time point 0 (T0). The plates were incubated at room temperature for 60 min prior to reading again to collect data at time point 1 (T1). Data is derived by subtracting the A412 signal measured at T0 (time point 0) from that measured at T1 (time point 1). The data was transformed to % effect using the equation:
(§4) Compound % effect=100*[(X−min)/(max−min)],
(§5) where X represents the normalized value for the compound based on the Min (vehicle) and Max (reference compound) inhibition control.
(§6) The concentration of Examples 1-26 that inhibited the activity by 50% (i.e.the IC50) was calculated by plotting the % effect versus test compound concentration and fitting the data using the Genedata Screener Smart fit algorithm.

Human Arginase 2 = biological target: T2, Human Arginase 2 (Homo sapiens, UniProt P78540); experiment: Human Arginase 2 enzyme inhibition (thioarginine/DTNB absorbance at 412 nm); type: biochemical; conditions: recombinant enzyme 5 nM, 60 min, room temperature
T2 construct: made in house; host or cells: E. coli
T2 sequence (P78540 23-354): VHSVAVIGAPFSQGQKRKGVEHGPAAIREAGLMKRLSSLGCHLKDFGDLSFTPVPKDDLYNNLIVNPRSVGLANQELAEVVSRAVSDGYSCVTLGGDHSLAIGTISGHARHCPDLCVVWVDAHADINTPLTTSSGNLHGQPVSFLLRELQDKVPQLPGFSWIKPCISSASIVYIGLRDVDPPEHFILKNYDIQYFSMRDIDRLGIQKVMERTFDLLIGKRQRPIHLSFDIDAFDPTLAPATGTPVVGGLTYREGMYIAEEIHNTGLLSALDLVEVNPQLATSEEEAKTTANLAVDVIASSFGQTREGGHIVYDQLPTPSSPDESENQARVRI
Description: as §1, §2, §3, §4, §5, §6

[1] = Bioavailability / pharmacokinetic study in male rats (IV and PO); type: in vivo; conditions: rat; for Vd: read-out: Vdss; for Cmax / Tmax / AUC: PO 5 mg/kg; for bioavailability: 5 mg/kg, pro-drug when dosed as pro-drug, PO vs IV
Procedure: Example 14 is a prodrug form of Example 1. Examples 19 to 22 and 24 to 26 are prodrugs of example 18. […] Example 19 was formulated in 0.9% w/v saline pH 4 (adjusted with 1 M HCl) for IV dosing. The formulation was dosed at 2 mg/kg by femoral catheter to two male rats each (170-250 g). Jugular vein catheter serial blood samples were taken at 0.033, 0.083, 0.167, 0.5, 1, 2, 4, 8, and 24 hrs post-dose. For PO dosing, Example 19 was formulated in deionized water pH 4 (adjusted with 1 M HCl) and dosed at 5 mg/kg by oral gavage to two male rats each (170-250 g). Serial blood samples were taken by jugular vein catheter at 0.25, 0.5, 1, 1.5, 2, 3, 4, 8, and 24 hrs post dose. Plasma samples were generated from blood using low speed centrifugation. A single set of calibration standards containing Example 18 and Example 19 were prepared by spiking blank plasma. The samples and standards were extracted by precipitation with two volumes of acetonitrile followed by centrifugation. The results obtained were used to determine the Cl (mL/min/kg), Vdss (L/kg), Cmax (μM), AUC (μM h), tmax (h), and % F for both Example 18 and Example 19. Absolute bioavailability was determined by comparing the PO dose normalized AUC of Example 18 when dosed as Example 19, versus the dose normalized IV AUC of Example 18 when dosed as Example 18. Where appropriate, measured, not nominal, doses were used in the calculation. In an analogous fashion, the same procedure was repeated for Examples 14, 20 to 22, and 24 to 26.

[2] = plasma, payload when dosed as payload, IV
[3] = pro-drug in plasma when dosed as pro-drug, IV 2 mg/kg
[4] = pro-drug in plasma when dosed as pro-drug

Row | IC50 (Human Arginase 1) | IC50 (Human Arginase 2) | clearance [1, 2] | Vd [1, 2] | clearance [1, 3] | Vd [1, 3] | Cmax [1, 4] | Tmax [1, 4] | bioavailability ([1]; plasma) | AUC [1, 4] | Compound
1 | 39 nM | 81 nM | 8.26 mL/min/kg | 0.46 L/kg | – | – | – | – | – | – | NC[C@@H](CCCB(O)O)[C@H](N)C(=O)O [Example 1, (2S,3R)-2-amino-3-(aminomethyl)-6-boronohexanoic acid]
2 | 38600 nM | 85200 nM | – | – | – | – | – | – | – | – | N[C@H](C(=O)O)[C@H](CCCB(O)O)CN1CCOCC1 [Example 2, (2S,3R)-2-amino-6-borono-3-(morpholinomethyl)hexanoic acid]
3 | 7060 nM | 16300 nM | – | – | – | – | – | – | – | – | N[C@H](C(=O)O)[C@H](CCCB(O)O)CN1CCCCC1 [Example 3, (2S,3R)-2-amino-6-borono-3-(piperidin-1-ylmethyl)hexanoic acid]
4 | 870 nM | 770 nM | – | – | – | – | – | – | – | – | CNC[C@@H](CCCB(O)O)[C@H](N)C(=O)O [Example 4, (2S,3R)-2-amino-6-borono-3-((methylamino)methyl)hexanoic acid]
5 | 2090 nM | 4310 nM | – | – | – | – | – | – | – | – | CN(C)C[C@@H](CCCB(O)O)[C@H](N)C(=O)O [Example 5, (2S,3R)-2-amino-6-borono-3-((dimethylamino)methyl)hexanoic acid]
6 | 2730 nM | 5580 nM | – | – | – | – | – | – | – | – | NC(=O)NC[C@@H](CCCB(O)O)[C@H](N)C(=O)O [Example 7, (2S,3R)-2-amino-6-borono-3-(ureidomethyl)hexanoic acid]
7 | 150 nM | 490 nM | – | – | – | – | – | – | – | – | CC(C)[C@H](N)C(=O)NC[C@@H](CCCB(O)O)[C@H](N)C(=O)O [Example 8, (2S,3R)-2-amino-3-(((S)-2-amino-3-methylbutanamido)methyl)-6-boronohexanoic acid]
8 | 180 nM | 410 nM | – | – | – | – | – | – | – | – | CC[C@H](N)C(=O)NC[C@@H](CCCB(O)O)[C@H](N)C(=O)O [Example 9, (2S,3R)-2-amino-3-(((S)-2-aminobutanamido)methyl)-6-boronohexanoic acid]
9 | 160 nM | 360 nM | – | – | – | – | – | – | – | – | C[C@H](N)C(=O)NC[C@@H](CCCB(O)O)[C@H](N)C(=O)O [Example 10, (2S,3R)-2-amino-3-(((S)-2-aminopropanamido)methyl)-6-boronohexanoic acid]
10 | 5080 nM | 5890 nM | – | – | – | – | – | – | – | – | CC(=O)NC[C@@H](CCCB(O)O)[C@H](N)C(=O)O [Example 11, (2S,3R)-3-(acetamidomethyl)-2-amino-6-boronohexanoic acid]
11 | 400 nM | 1080 nM | – | – | – | – | – | – | – | – | CN[C@H](C(=O)O)[C@@H](CN)CCCB(O)O [Example 12, (2S,3R)-3-(aminomethyl)-6-borono-2-(methylamino)hexanoic acid]
12 | 13200 nM | 9460 nM | – | – | – | – | – | – | – | – | CC(C)[C@H](N)C(=O)N[C@H](C(=O)O)[C@@H](CN)CCCB(O)O [Example 13, (2S,3R)-2-((S)-2-Amino-3-methylbutanamido)-3-(aminomethyl)-6-boronohexanoic acid]
13 | 2180 nM | 3900 nM | – | – | 46.1 mL/min/kg | 0.47 L/kg | 130 nM | 15 min | – | – | C[C@H](N)C(=O)N[C@H](C(=O)O)[C@@H](CN)CCCB(O)O [Example 14, (2S,3R)-3-(aminomethyl)-2-((S)-2-aminopropanamido)-6-boronohexanoic acid]
14 | 220 nM | 480 nM | – | – | – | – | – | – | – | – | NCC[C@@H](CCCB(O)O)[C@H](N)C(=O)O [Example 15, (2S,3R)-2-amino-3-(2-aminoethyl)-6-boronohexanoic acid]
15 | 19200 nM | 54400 nM | – | – | – | – | – | – | – | – | NC(=O)[C@@H](CCCB(O)O)[C@H](N)C(=O)O [Example 16, (2S,3S)-2-amino-6-borono-3-carbamoylhexanoic acid]
16 | 34200 nM | > 100000 nM | – | – | – | – | – | – | – | – | CNC(=O)[C@@H](CCCB(O)O)[C@H](N)C(=O)O [Example 17, (2S,3S)-2-amino-6-borono-3-(methylcarbamoyl)hexanoic acid]
17 | 90 nM | 220 nM | 7.3 mL/min/kg | 0.38 L/kg | – | – | – | – | – | – | NC[C@H](CCCB(O)O)[C@H](N)C(=O)O [Example 18, (2S,3S)-2-amino-3-(aminomethyl)-6-boronohexanoic acid]
18 | 60 nM | 110 nM | – | – | 16.4 mL/min/kg | 0.47 L/kg | 660 nM | 30 min | 8.3% | 1.4 µM·h | CC(C)[C@H](N)C(=O)NC[C@H](CCCB(O)O)[C@H](N)C(=O)O [Example 19, (2S,3S)-2-amino-3-(((S)-2-amino-3-methylbutanamido)methyl)-6-boronohexanoic acid]
19 | 9 nM | 140 nM | – | – | 12.5 mL/min/kg | 0.21 L/kg | 440 nM | 45 min | 5.1% | 1.25 µM·h | C[C@H](N)C(=O)NC[C@H](CCCB(O)O)[C@H](N)C(=O)O [Example 20, (2S,3S)-2-amino-3-(((S)-2-aminopropanamido)methyl)-6-boronohexanoic acid]
20 | 39 nM | 61 nM | – | – | 14.1 mL/min/kg | 0.22 L/kg | 230 nM | 30 min | 1.5% | 0.35 µM·h | CC[C@H](N)C(=O)NC[C@H](CCCB(O)O)[C@H](N)C(=O)O [Example 21, (2S,3S)-2-amino-3-(((S)-2-aminobutanamido)methyl)-6-boronohexanoic acid]
21 | 49 nM | 100 nM | – | – | 13.1 mL/min/kg | 0.2 L/kg | 450 nM | 60 min | 4.5% | 0.92 µM·h | CC[C@H](C)[C@H](N)C(=O)NC[C@H](CCCB(O)O)[C@H](N)C(=O)O [Example 22, (2S,3S)-2-amino-3-(((2S,3S)-2-amino-3-methylpentanamido)methyl)-6-boronohexanoic acid]
22 | 30 nM | 100 nM | – | – | – | – | – | – | – | – | CC(C)(C)[C@H](N)C(=O)NC[C@H](CCCB(O)O)[C@H](N)C(=O)O [Example 23, (2S,3S)-2-amino-3-(((S)-2-amino-3,3-dimethylbutanamido)methyl)-6-boronohexanoic acid]
23 | 22 nM | 65 nM | – | – | 8.4 mL/min/kg | 0.2 L/kg | 880 nM | 105 min | 6.4% | 2.9 µM·h | NCC(=O)NC[C@H](CCCB(O)O)[C@H](N)C(=O)O [Example 24, (2S,3S)-2-amino-3-((2-aminoacetamido)methyl)-6-boronohexanoic acid]
